From patent US20140200265A1, “USAGE OF 1,3,5,7-TETRAHYDROXY-8-ISOPRENYLXANTHONE FOR TREATING INFLAMMATION” (Hong Kong Baptist University, priority 2013, published 2014)
pIC50: −log10 of the molar value. Converted amounts (≈) assume the structure as drawn. Read-outs that look alike come from different tables or passages of the source.

Assays:
[1] = system: NO production in LPS and IFN-γ stimulated RAW264.7 cells; experiment: Assay for NO accumulation in stimulated macrophages (Griess reaction); format: cell-based; conditions: Mus musculus, 24 hours
Description: RAW264.7 were maintained in RPMI 1640 medium supplemented with 10% FBS at 37° C. in a humidified 5% CO2 atmosphere. Cells were plated in a 96-well plate (5×10^3 cells/well) and allowed to attach overnight. The cells were then stimulated with 10 U/ml of IFN-γ and 100 ng/ml of LPS for 24 hours in the presence or absence of tested compound with final concentration of 50, 25, 12.5, 6.25, 3.125 μg/mL, and Indometacin as positive drug.
iNOS function was analyzed with Griess reaction and was applied for measurement of nitrite concentration in the culture supernatant. Briefly, 100 μl/well of sample was incubated with equal volume of Griess solution at room temperature for 10 min. The absorbance was evaluated at 540 nm using a calibration curve with a sodium nitrite standard. Percent inhibition was expressed as [1-(NO level of sample/NO level of vehicle treated-control)]×100 (Table 1).

[2] = system: miR-155 expression in stimulated RAW264.7 cells; experiment: Assay for microRNA155 expression in stimulated macrophages (qRT-PCR); format: cell-based; conditions: RAW264.7 cells, 1, 2, 4 μg/mL, 24 hours, FIG. 2
Description: RAW264.7 cells were pretreated with tested sample (1,2,4 μg/mL,) for 1 hour and then stimulated for 24 hours. The cells were harvested. Total RNA was extracted and RNA concentrations were determined. Quantitative RT-PCR analyses on miRNAs were performed using TaqMan miR NA assays (Applied Biosystems, USA). 50 ng of RNA per reaction was subjected for RT reaction. RT reaction was carried out using the following conditions: 16° C. for 30 minutes, 42° C. for 30 minutes, and 85° C. for 5 minutes. Expression levels of the miRNAs were determined by qRT-PCR using TaqMan Expression Assays (Applied Biosystems, USA). RNU6 endogenous control was used for normalization, and expression levels were presented as ΔCt with standard deviation (FIG. 2).
As miR-155 plays an important role in the innate immune response or inflammation, the effect of 1,3,5,7-tetrahydroxy-8-isoprenylxanthone on the expression of miR-155 by qRT-PCR was evaluated. In FIG. 2, the cells were stimulated with 100 ng/ml of LPS and 10 U/ml of IFN-γ only or LPS plus different concentrations (1,2,4 μg/mL) of sample for 24 hours. Total RNA was isolated and the expression of miRNA-155 was determined by qRT-PCR. […] RNU6B was used here as an endogenous control. The data represent the mean±SD of triplicate experiments. **p<0.01 compared with the LPS plus IFN-γ.

[3] = system: Candida albicans secreted aspartic proteases (SAP); conditions: Planta Med. 2002; 68(1):49-54; cited from earlier work

SMILES | inhibition at 1 µg/mL ([1]; 1 μg/mL, IFN-γ and LPS, read-out: The inhibitory effect on NO accumulation (percent inhibition)) [%] | Effect on LPS plus IFN-γ-induced miR-155 expression [2] | pIC50 ([1]; 10 U/ml IFN-γ and 100 ng/ml LPS, read-out: The inhibitory effect on NO accumulation, IC50) | IC50 ([1]; 10 U/ml IFN-γ and 100 ng/ml LPS, read-out: The inhibitory effect on NO accumulation, IC50(μg/mL)) [µg/mL] | IC50 against Candida albicans secreted aspartic proteases (SAP) [3] [µg/mL]
COc1ccc2c(c1)c(CC(=O)O)c(C)n2C(=O)c1ccc(Cl)cc1 [Indometacin, reference compound] | 46.5 |  |  |  | 
CC(C)=CCc1c(O)cc(O)c2oc3cc(O)cc(O)c3c(=O)c12 [1,3,5,7-tetrahydroxy-8-isoprenylxanthone] |  | reduced LPS plus IFN-γ-induced miR-155 expression in a dose-dependent manner | 5.30 | 1.66 | 25 (≈ 76.1 µM)
